How the values were obtained:
[1] = tested on: interstitial collagenase (type-1 metalloprotease, MMP-1) production by HT1080 cells; assay: Production of interstitial collagenase in HT1080 cell culture (ELISA, Biotrack human MMP1); assay type: cell-based; conditions: for percentage of reduction of the production of interstitial collagenase relative to the control: compound 25 μg/ml, culture medium 96 hours after contact
Method: (§1) The effect of 2-dimethylaminoethyl 10-hydroxy-2-decenoate on the production of interstitial collagenase was evaluated in a culture model of A2058 cells (derived from human melanomas: Templeton N. S. et al. 1990; Cancer Res., 50:5431-5431) and in a culture model of HT1080 cells derived from a human fibrosarcoma (American type Culture Collection: reference CCL 121).
(§2) The A2058 cells constitutively express and secrete type-1 metalloprotease. The HT1080 cells express little type-1 metalloprotease in the basal state, but this expression is increased in the presence of TPA.
(§3) The cells are incubated in an MEM medium without phenol red, containing amino acids at a concentration of 2 mM, sodium pyruvate at a concentration of 1 mM and calf serum containing 10% […]. They are then cultured at a density of 20 000 cells per well in the 24 wells of a multiwell plate.
(§4) Twenty-four hours after culturing, the cells are placed in contact with 2-dimethylaminoethyl 10-hydroxy-2-decenoate at a concentration of 25 μg/ml. The production of the interstitial collagenase is evaluated 96 hours later in the culture medium. This is performed using an ELISA kit (Biotrack human MMP1; Amersham).
(§5) The results are expressed as a percentage of reduction of the production of interstitial collagenase relative to the control, i.e. relative to culturing performed under the same conditions in the absence of derivative.

[2] = tested on: interstitial collagenase (type-1 metalloprotease, MMP-1) production by A2058 cells; assay: Production of interstitial collagenase in A2058 cell culture (ELISA, Biotrack human MMP1); assay type: cell-based
Method: as §1, §2, §3, §4, §5

SMILES: CN(C)CCOC(=O)/C=C/CCCCCCCO [2-dimethylaminoethyl 10-hydroxy-2-decenoate]
- percentage of reduction of the production of interstitial collagenase relative to the control ([1]; HT1080 with TPA): 50%
- percentage of reduction of the production of interstitial collagenase relative to the control ([1]; HT1080 without TPA): 55%
- effect on production of interstitial collagenase (in words) ([1]; HT61080 cells as printed, dose of 25 μg/ml): reduces the production of interstitial collagenase
- percentage of reduction of the production of interstitial collagenase relative to the control ([2]; A2058 cells, compound 25 μg/ml, culture medium 96 hours after contact): 70%
- effect on production of interstitial collagenase (in words) ([2]; A 2058 cells, dose of 25 μg/ml): reduces the production of interstitial collagenase
